Results on four compounds are retold here after patent publication US20210254101A1, “METHODS FOR TREATING SPINAL CORD INJURY” (THE CHILDREN'S MEDICAL CENTER CORPORATION, priority 2018, published 2021).

The subject of data set [1] is mice with staggered lesions. Put plainly: Basso Mouse Scale (BMS) open field locomotion after staggered T7/T10 lateral hemisections. It is filed as in vivo. The settings on record: for stepping ability / functional recovery (BMS), chronic compound treatment: daily i.p. treatment from 1 week after injury, BMS about 24 h after previous dose, FIG. 1E, 7A. On the procedure: A staggered lesion paradigm was optimized in which two lateral hemisections were performed at the thoracic (T) 7 and T10 levels simultaneously (FIGS. 1A and 1B), similar to the model previously described (Courtine 2008; van den Brand, 2012). The T10 lesion is a lateral hemisection that ends at the spinal cord midline, while the T7 lesion, contralateral to the T10 lesion, extends slightly beyond the midline (FIG. 1A). With this double hemisection procedure, all descending axons passing T10 are severed, leaving only those crossing the midline between T7 and T10 intact (FIG. 1C). Indeed, by immunohistochemistry with anti-5-HT antibodies, which label serotonergic axons, descending serotonergic axons could be detected in the spinal cord segments between the lesions, but not in the lumbar spinal cord (FIG. 1C). Thus, a relay zone remains between and around the lesions (T7 and T10) where descending axons terminate, and where some propriospinal neurons maintain their connections with lumbar spinal neurons (see herein below).
This double hemisection SCI model was used to seek small molecule compounds that could reactivate the spared, but dormant, spinal connections by monitoring hindlimb motor performance during over-ground locomotion. To this end, daily compound treatment was started 1 week after injury and then monitored the BMS scores approximately 24 hours after the previous day's compound treatment on a weekly basis (FIG. 1D). Behavioral outcomes observed at these time points likely reflect sustained effects of the treatment, which are more clinically relevant.
Surgical Procedures. The procedure of T7 and T10 double lateral hemisection was similar to that described elsewhere (Courtine et al., 2008; van den Brand et al., 2012). Briefly, a midline incision was made over the thoracic vertebrae, followed by a T7-10 laminectomy. For the T7 right side over-hemisection, a scalpel and micro-scissors were carefully used to interrupt the bilateral dorsal column at T7, and ensured no sparing of ventral pathways on the contralateral side (FIG. 1A). For the T10 left hemisection, a scalpel and micro-scissors were carefully used to interrupt only the left side of the spinal cord until the midline. The muscle layers were then sutured, and the skin was secured with wound clips. All animals received post hoc histological analysis, and those with spared 5HT axons at the lumbar spinal cord (L2-5) were excluded for behavioral analysis (FIG. 7).
(§1) Behavioral Experiments. Motor function was evaluated with a locomotor open field rating scale on the Basso Mouse Scale (BMS). For transient pharmacological treatments, ten to fifteen minutes (van den Brand et al., 2012) prior to behavioral tests (grounding walking, all of which were performed individually), mice received systematic administration (i.p.) of the neural modulators listed above. It is important to note that with a single intraperitoneal injection, plasma CNO levels peak at 15 min and become very low by 2 h after injection (Guettier et al., 2009). For chronic pharmacological treatments, 24 hours prior to behavioral tests, mice received systematic administration of the compounds listed above. All behavioral tests were completed within 1-3 hours. For detailed hindlimb kinematic analysis, mice from different groups were placed in the MotoRater (TSE Systems, (Zorner et al., 2010)), and all kinematic analysis was performed based on data collected by the MotoRater.

The conditions of data set [2]: Guettier et al., 2009, cited from earlier work.
Data set [3] concerns c-Fos. Put plainly: c-Fos immunoreactivity in spinal cord segments between T7 and T10 after 1 hour walking. In kind it is in vivo, mouse. The settings on record: chronic treatment. The source says:
In mature neurons, GABA and glycine are inhibitory because they open chloride channels, which allow chloride ion influx leading to hyperpolarization. In contrast, during development, the elevated intracellular chloride levels render GABAA- and glycine-mediated currents depolarizing and generally excitatory. During early postnatal life, KCC2 upregulation in postnatal neurons is crucial for reducing intracellular chloride concentrations, transforming excitation into inhibition (Ben-Ari et al., 2012; Kaila et al., 2014). Thus, injury-induced KCC2 down-regulation (Boulenguez et al., 2010; Cote et al., 2014) would be expected to restore an immature state in which GABA and glycine receptors can depolarize neurons. In this scenario, KCC2 activation in spinal inhibitory neurons would transform local circuits in the relay zone towards a more physiological state, which is more receptive to descending inputs. To examine this, c-Fos immunoreactivity was used as a proxy of neuronal activity in the spinal cord segments between T7 and T10 at 8 weeks after injury, and after walking on a treadmill for 1 hour. In each group, the majority of c-Fos-positive cells in these spinal segments were also positively stained with NeuN, a neuronal marker (FIG. 11A, 11B). In injured mice without treatment, the c-Fos-positive neurons were concentrated in the dorsal horn of the spinal cord (FIG. 5A-5C), perhaps reflecting hypersensitivity to peripheral sensory inputs in these injured mice. […] This KCC2-transformed distribution pattern is similar to what was detected in intact mice, in response to walking (FIG. 5A-5C).
Immunohistochemistry and Imaging. The paraformaldehyde (PFA) fixed tissues were cryo-protected with 30% sucrose and processed using cryostat (section thickness 40 μm for spinal cord). Sections were treated with a blocking solution containing 10% normal donkey serum with 0.5% Triton-100 for 2 hours at room temperature before staining. The primary antibodies (4 □, overnight) used were: rabbit anti-GFAP [DAKO (Z0334), 1:600]; rabbit anti-5-HT [Immunostar (20080), 1:5,000]; chicken anti-GFP [Abcam (ab13970), 1:400]; rabbit anti-RFP [Abcam (ab34771), 1:400]; rabbit anti-PKCγ [Santa Cruz (sc211), 1:100]; rat anti-HA [Sigma (11867423001), 1:200]; rabbit anti-c-Fos [Cell signaling (2250s), 1:100]; and mouse anti-NeuN [Millipore (MAB377), 1:400]. Secondary antibodies (room temperature, 2 h) included: Alexa Fluor 488-conjugated donkey anti chicken and rabbit; and Alexa Fluor 594-conjugated donkey anti rabbit (all from Invitrogen). c-Fos immunoreactivity of spinal neurons was determined as previously described (Courtine et al., 2009), after 1-hour of continuous quadrupedal free walking (intact), stepping (CLP290 or AAV-KCC2 treated mice) or dragging (vehicle or AAV-GFP treated mice). The mice were returned to their cages, and were then anesthetized and sacrificed by intracardial perfusion of 4% PFA (wt/vol) in phosphate buffered saline (PBS) about 2 hours later.

For data set [4], the system named is neuropathic pain. The settings on record: animal models; Gagnon et al., 2013; Ferrini et al., 2017; Knabl et al., 2008; cited from earlier work.
Data set [5] relates to mice with a complete T8 spinal cord transection. Briefly: BMS open field locomotion after complete T8 spinal cord transection. In kind it is in vivo, mouse. Particulars: T8 complete transection, FIG. 7F.
From the text: CLP290's effects could result from reactivating the spared dormant descending connections in the spinal cord after SCI. However, it could also act directly on the lumbar spinal cord, independently of descending inputs. […] Therefore, different from this transient effector that acts directly on the lumbar spinal cord, the effects of CLP290 on functional improvement are dependent on spared connections.
The procedure of T8 full transection was similar to that described elsewhere (Courtine et al., 2009). Briefly, a midline incision was made over the thoracic vertebrae, followed by a T8 laminectomy. The complete T8 transection was then performed carefully using both a scalpel and micro-scissors. The muscle layers were then sutured and the skin was secured with wound clips.
as §1

The mark [6] stands for this setting: T8/9, 8 weeks after injury, FIG. 5A-5C.

For the compound `CCCCNc1cc(C(=O)O)cc(S(N)(=O)=O)c1Oc1ccccc1` [Bumetanide], the “stepping ability / functional recovery (BMS), chronic compound treatment” value in data set [1] is listed as “some effects, but without statistical significance”.
For the compound `C[N+]1([O-])CCN(C2=Nc3cc(Cl)ccc3Nc3ccccc32)CC1` [CNO, Clozapine N-oxide], the “plasma CNO levels” value in data set [2] (by 2 h after single intraperitoneal injection) is listed as “very low”. The “time of peak plasma CNO levels” value in data set [2] (single intraperitoneal injection) is reported as 15 min.
As for `Cn1ncnc1COc1nn2c(-c3cc(F)ccc3F)nnc2cc1C(C)(C)C` [L838,417], in data set [3] (setting [6]), the “c-Fos-positive neurons in the dorsal horn (laminae I-V)” value was “reduced c-Fos-positive neurons in dorsal horn”; the “c-Fos-positive neurons in the intermediate/ventral spinal cord” value is “without increasing those in intermediate zones and ventral region”. In addition, the “neuronal activation levels across spinal cord regions” value in data set [3] (staggered injured mice) is “reduced neuronal activation levels in all spinal cord regions”. For the same compound, in data set [1], the “stepping ability / functional recovery (BMS), chronic compound treatment” value is recorded as “failed to promote functional motor recovery”. For the same compound, the “effect on neuropathic pain” value in data set [4] is reported as “reduce neuropathic pain”.
Consider `c1ccc2nc(N3CCNCC3)ccc2c1` [quipazine], for which the “BMS improvement measured acutely after compound administration” value in data set [5] (8 weeks, no chronic treatment) is “rapid, but transient, BMS improvement”; in data set [1] (staggered lesion, 8 weeks after SCI, FIG. 7B), “rapid, but transient, BMS improvement”. For the same compound, the “duration of acute BMS improvement / locomotion after administration” value is reported as “less than 2 hours” in data set [5] and “less than 2 hours” in data set [1] (staggered lesion, FIG. 7B). The “start of acute BMS improvement after administration” value in data set [5] came to 10 min; in data set [1] (staggered lesion, FIG. 7B) it was 10 min.
